{"source": "the supplement of paper PMC10307832", "test_in_all_cases": "relative viability (nuclei count vs DMSO), 5 days (fraction); higher = more cells survive", "key": {"LCLC-97TM1": {"tested_on": "LCLC-97TM1", "procedure,_shortened": "(§1)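 Relative viability divides the nuclei count in treated wells by that in vehicle wells. Lung cancer cell lines were seeded in 1536-well plates, dosed by pin tool the next day, and fixed and stained after 5 days in one step with final 0.05% Triton X-100, 1% formaldehyde and 1 ug/ml Hoechst. Dosing was a single drug or a fixed anchor-drug dose plus five library-drug doses (not always all listed) in √10 steps, and values are medians of duplicate plates imaged at 4×.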"}, "NCI-H23": {"tested_on": "NCI-H23", "procedure,_shortened": "as §1"}, "NCI-H441": {"tested_on": "NCI-H441", "procedure,_shortened": "as §1"}, "LU99A": {"tested_on": "LU99A", "procedure,_shortened": "as §1"}, "NCI-H322M": {"tested_on": "NCI-H322M", "procedure,_shortened": "as §1"}, "NCI-H460": {"tested_on": "NCI-H460", "procedure,_shortened": "as §1"}, "LOU-NH91": {"tested_on": "LOU-NH91", "procedure,_shortened": "as §1"}, "NCI-H2126": {"tested_on": "NCI-H2126", "procedure,_shortened": "as §1"}, "NCI-H1915": {"tested_on": "NCI-H1915", "procedure,_shortened": "as §1"}, "PC-3 [JPC-3]": {"tested_on": "PC-3 [JPC-3]", "procedure,_shortened": "as §1"}, "NCI-H1755": {"tested_on": "NCI-H1755", "procedure,_shortened": "as §1"}, "BEN": {"tested_on": "BEN", "procedure,_shortened": "as §1"}, "HARA": {"tested_on": "HARA", "procedure,_shortened": "as §1"}, "NCI-H1395": {"tested_on": "NCI-H1395", "procedure,_shortened": "as §1"}, "NCI-H2170": {"tested_on": "NCI-H2170", "procedure,_shortened": "as §1"}, "NCI-H1944": {"tested_on": "NCI-H1944", "procedure,_shortened": "as §1"}, "NCI-H650": {"tested_on": "NCI-H650", "procedure,_shortened": "as §1"}, "A-427": {"tested_on": "A-427", "procedure,_shortened": "as §1"}, "SK-LU-1": {"tested_on": "SK-LU-1", "procedure,_shortened": "as §1"}, "NCI-H1793": {"tested_on": "NCI-H1793", "procedure,_shortened": "as §1"}, "NCI-H2023": {"tested_on": "NCI-H2023", "procedure,_shortened": "as §1"}, "NCI-H1666": {"tested_on": "NCI-H1666", "procedure,_shortened": "as §1"}, "LXF-289": {"tested_on": "LXF-289", "procedure,_shortened": "as §1"}}, "data": [{"smiles": "Cc1cnc(-c2cnc(NCCNc3ccc(C#N)cn3)nc2-c2ccc(Cl)cc2Cl)[nH]1", "note": "+ Cc1nc(Nc2ncc(C(=O)Nc3c(C)cccc3Cl)s2)cc(N2CCN(CCO)CC2)n1 [Dasatinib] (partner 0.075 µM)", "values": [{"measurement": "relative viability", "setting": "LCLC-97TM1; first compound 0.08 µM", "result": 0.796}, {"measurement": "relative viability", "setting": "LCLC-97TM1; first compound 0.8 µM", "result": 0.887}, {"measurement": "relative viability", "setting": "LCLC-97TM1; first compound 2.53 µM", "result": 0.741}, {"measurement": "relative viability", "setting": "NCI-H23; first compound 0.08 µM", "result": 0.879}, {"measurement": "relative viability", "setting": "NCI-H23; first compound 0.253 µM", "result": 0.751}, {"measurement": "relative viability", "setting": "NCI-H23; first compound 0.8 µM", "result": 0.871}, {"measurement": "relative viability", "setting": "NCI-H23; first compound 2.53 µM", "result": 0.713}, {"measurement": "relative viability", "setting": "NCI-H441; first compound 0.08 µM", "result": 0.672}, {"measurement": "relative viability", "setting": "NCI-H441; first compound 0.253 µM", "result": 0.578}, {"measurement": "relative viability", "setting": "NCI-H441; first compound 0.8 µM", "result": 0.385}, {"measurement": "relative viability", "setting": "NCI-H441; first compound 2.53 µM", "result": 0.403}, {"measurement": "relative viability", "setting": "LU99A; first compound 0.08 µM", "result": 0.507}, {"measurement": "relative viability", "setting": "LU99A; first compound 0.253 µM", "result": 0.487}, {"measurement": "relative viability", "setting": "LU99A; first compound 0.8 µM", "result": 0.528}, {"measurement": "relative viability", "setting": "LU99A; first compound 2.53 µM", "result": 0.643}, {"measurement": "relative viability", "setting": "NCI-H322M; first compound 0.08 µM", "result": 0.246}, {"measurement": "relative viability", "setting": "NCI-H322M; first compound 0.253 µM", "result": 0.281}, {"measurement": "relative viability", "setting": "NCI-H322M; first compound 0.8 µM", "result": 0.248}, {"measurement": "relative viability", "setting": "NCI-H322M; first compound 2.53 µM", "result": 0.274}, {"measurement": "relative viability", "setting": "NCI-H460; first compound 0.08 µM", "result": 0.543}, {"measurement": "relative viability", "setting": "NCI-H460; first compound 0.253 µM", "result": 0.404}, {"measurement": "relative viability", "setting": "NCI-H460; first compound 0.8 µM", "result": 0.557}, {"measurement": "relative viability", "setting": "NCI-H460; first compound 2.53 µM", "result": 0.454}, {"measurement": "relative viability", "setting": "LOU-NH91; first compound 0.08 µM", "result": 0.562}, {"measurement": "relative viability", "setting": "LOU-NH91; first compound 0.253 µM", "result": 0.558}, {"measurement": "relative viability", "setting": "LOU-NH91; first compound 0.8 µM", "result": 0.55}, {"measurement": "relative viability", "setting": "LOU-NH91; first compound 2.53 µM", "result": 0.514}, {"measurement": "relative viability", "setting": "NCI-H2126; first compound 0.08 µM", "result": 0.686}, {"measurement": "relative viability", "setting": "NCI-H2126; first compound 0.253 µM", "result": 0.54}, {"measurement": "relative viability", "setting": "NCI-H2126; first compound 0.8 µM", "result": 0.604}, {"measurement": "relative viability", "setting": "NCI-H2126; first compound 2.53 µM", "result": 0.529}, {"measurement": "relative viability", "setting": "NCI-H1915; first compound 0.08 µM", "result": 0.339}, {"measurement": "relative viability", "setting": "NCI-H1915; first compound 0.253 µM", "result": 0.294}, {"measurement": "relative viability", "setting": "NCI-H1915; first compound 0.8 µM", "result": 0.342}, {"measurement": "relative viability", "setting": "NCI-H1915; first compound 2.53 µM", "result": 0.311}, {"measurement": "relative viability", "setting": "PC-3 [JPC-3]; first compound 0.08 µM", "result": 0.926}, {"measurement": "relative viability", "setting": "PC-3 [JPC-3]; first compound 0.253 µM", "result": 0.88}, {"measurement": "relative viability", "setting": "PC-3 [JPC-3]; first compound 0.8 µM", "result": 0.929}, {"measurement": "relative viability", "setting": "PC-3 [JPC-3]; first compound 2.53 µM", "result": 1}, {"measurement": "relative viability", "setting": "NCI-H1755; first compound 0.08 µM", "result": 0.435}, {"measurement": "relative viability", "setting": "NCI-H1755; first compound 0.253 µM", "result": 0.427}, {"measurement": "relative viability", "setting": "NCI-H1755; first compound 0.8 µM", "result": 0.398}, {"measurement": "relative viability", "setting": "NCI-H1755; first compound 2.53 µM", "result": 0.399}, {"measurement": "relative viability", "setting": "BEN; first compound 0.08 µM", "result": 0.332}, {"measurement": "relative viability", "setting": "BEN; first compound 0.253 µM", "result": 0.364}, {"measurement": "relative viability", "setting": "BEN; first compound 0.8 µM", "result": 0.291}, {"measurement": "relative viability", "setting": "BEN; first compound 2.53 µM", "result": 0.351}, {"measurement": "relative viability", "setting": "HARA; first compound 0.08 µM", "result": 0.223}, {"measurement": "relative viability", "setting": "HARA; first compound 0.253 µM", "result": 0.259}, {"measurement": "relative viability", "setting": "HARA; first compound 0.8 µM", "result": 0.343}, {"measurement": "relative viability", "setting": "HARA; first compound 2.53 µM", "result": 0.244}, {"measurement": "relative viability", "setting": "NCI-H1395; first compound 0.08 µM", "result": 0.405}, {"measurement": "relative viability", "setting": "NCI-H1395; first compound 0.253 µM", "result": 0.401}, {"measurement": "relative viability", "setting": "NCI-H1395; first compound 0.8 µM", "result": 0.443}, {"measurement": "relative viability", "setting": "NCI-H1395; first compound 2.53 µM", "result": 0.432}, {"measurement": "relative viability", "setting": "NCI-H2170; first compound 0.08 µM", "result": 0.556}, {"measurement": "relative viability", "setting": "NCI-H2170; first compound 0.253 µM", "result": 0.345}, {"measurement": "relative viability", "setting": "NCI-H2170; first compound 0.8 µM", "result": 0.576}, {"measurement": "relative viability", "setting": "NCI-H2170; first compound 2.53 µM", "result": 0.487}, {"measurement": "relative viability", "setting": "NCI-H1944; first compound 0.08 µM", "result": 0.24}, {"measurement": "relative viability", "setting": "NCI-H1944; first compound 0.8 µM", "result": 0.251}, {"measurement": "relative viability", "setting": "NCI-H1944; first compound 2.53 µM", "result": 0.316}, {"measurement": "relative viability", "setting": "NCI-H650; first compound 0.08 µM", "result": 0.497}, {"measurement": "relative viability", "setting": "NCI-H650; first compound 0.253 µM", "result": 0.462}, {"measurement": "relative viability", "setting": "NCI-H650; first compound 0.8 µM", "result": 0.511}, {"measurement": "relative viability", "setting": "NCI-H650; first compound 2.53 µM", "result": 0.495}, {"measurement": "relative viability", "setting": "A-427; first compound 0.08 µM", "result": 0.747}, {"measurement": "relative viability", "setting": "A-427; first compound 0.253 µM", "result": 0.589}, {"measurement": "relative viability", "setting": "A-427; first compound 0.8 µM", "result": 0.738}, {"measurement": "relative viability", "setting": "A-427; first compound 2.53 µM", "result": 0.682}, {"measurement": "relative viability", "setting": "SK-LU-1; first compound 0.08 µM", "result": 0.185}, {"measurement": "relative viability", "setting": "SK-LU-1; first compound 0.253 µM", "result": 0.185}, {"measurement": "relative viability", "setting": "SK-LU-1; first compound 0.8 µM", "result": 0.18}, {"measurement": "relative viability", "setting": "SK-LU-1; first compound 2.53 µM", "result": 0.226}, {"measurement": "relative viability", "setting": "NCI-H1793; first compound 0.08 µM", "result": 0.384}, {"measurement": "relative viability", "setting": "NCI-H1793; first compound 0.253 µM", "result": 0.365}, {"measurement": "relative viability", "setting": "NCI-H1793; first compound 0.8 µM", "result": 0.411}, {"measurement": "relative viability", "setting": "NCI-H1793; first compound 2.53 µM", "result": 0.468}, {"measurement": "relative viability", "setting": "NCI-H2023; first compound 0.08 µM", "result": 0.811}, {"measurement": "relative viability", "setting": "NCI-H2023; first compound 0.253 µM", "result": 0.532}, {"measurement": "relative viability", "setting": "NCI-H2023; first compound 0.8 µM", "result": 0.599}, {"measurement": "relative viability", "setting": "NCI-H2023; first compound 2.53 µM", "result": 0.636}, {"measurement": "relative viability", "setting": "NCI-H1666; first compound 0.08 µM", "result": 0.897}, {"measurement": "relative viability", "setting": "NCI-H1666; first compound 0.253 µM", "result": 0.671}, {"measurement": "relative viability", "setting": "NCI-H1666; first compound 0.8 µM", "result": 0.845}, {"measurement": "relative viability", "setting": "NCI-H1666; first compound 2.53 µM", "result": 0.7}, {"measurement": "relative viability", "setting": "LXF-289; first compound 0.08 µM", "result": 0.249}, {"measurement": "relative viability", "setting": "LXF-289; first compound 0.253 µM", "result": 0.204}, {"measurement": "relative viability", "setting": "LXF-289; first compound 0.8 µM", "result": 0.189}, {"measurement": "relative viability", "setting": "LXF-289; first compound 2.53 µM", "result": 0.139}]}]}
